In ChEMBL document CHEMBL1147379, “Antineoplastic agents, 256. Cell growth inhibitory isocarbostyrils from Hymenocallis” (1993):
≈ marks a conversion by molar mass, not a printed value.

Tested on: P388
Experiment: Growth inhibition of mouse P388 cells
Type: functional
Settings: read-out: ED50 (the source's name)

O=C1N[C@H]2[C@H](O)[C@H](O)[C@@H](O)C[C@@H]2c2cc3c(c(O)c21)OCO3
EC50: 0.02 mg/L (≈ 0.0647 µM)
